The nature of this data set: in vitro osmotic pumping of methylene blue up a capillary tube from a closed drug reservoir. In kind it is physicochemical. Particulars: reservoir with urea and lactose tablets in 125 mL degassed, deionized water; 36 cm capillary tube extended vertically. From the text:
Another experimental system was designed to simulate a ureteral drug delivery device having a flexible elongate body with a bladder end portion and a kidney end portion, a drug reservoir located at the bladder end portion which contains a drug and has a semi-permeable wall, and a drug lumen (capillary tube) having a first opening into the drug reservoir and a second end opening at the kidney end portion of the flexible elongate body. The ureteral drug delivery device used in the experiments was configured to permit water to enter the drug reservoir through the semi-permeable wall to create an osmotic pressure to pump the drug from the drug reservoir through the capillary tube and out of the device through the second end opening.
In this experiment, a drug reservoir similar to that illustrated in FIG. 11A was prepared. In particular, a spacer end piece was adhered using silicone adhesive within a tubular silicone housing. 10.5 cm of urea tablets, 4 cm of lactose tablets, and one tablet containing methylene blue were loaded into the tubular housing. A capillary tube (36 cm) having two spacers disposed in a spaced relationship at one end was slid into the tubular housing of the drug reservoir, adjacent the methylene blue tablet. […]

SMILES strings stand for the structures.

Turning to `CN(C)c1ccc2nc3ccc(=[N+](C)C)cc-3sc2c1` [methylene blue], the “movement of the dye up the capillary tube” value was “observed”.

Source of the values: patent US10010400B2, “Devices and methods for local delivery of drug to upper urinary tract” (TARIS Biomedical LLC, priority 2015, dated 2018).
